The test system of one data set is HUVEC cell line. In words: MTT assay, inhibition of proliferation of HUVEC cell line. The settings on record: Homo sapiens, MTT assay, 50% inhibition of cell growth, read-out: IC50 HUVEC. In kind it is cell-based. As to the method:
(§1) The xanthones 1–11 were tested for cytotoxicity against HeLa, A549, HCT-116, and HepG-2 human cancer cell lines and inhibition on the proliferation of the HUVEC cell line by using the MTT assay according to the described protocols.
Background: Tetrazolium assays rely on reduction of a dye to a coloured formazan, in cell work by metabolically active cells.

The next data set concerns A549. Briefly: MTT cytotoxicity assay, A549. The following applies: Homo sapiens, A549; MTT assay; 50% inhibition of cell growth; read-out: IC50 A549. The format is cell-based. The method, then:
as §1

In data set [1] the test system is zebrafish embryos. Briefly: Heart rates of treated zebrafish embryos. In kind it is in vivo, zebrafish (Danio rerio).
The next data set deals with HUVEC. In words: HUVEC wound migration assay. In kind it is cell-based, human. The following applies: 0.5 μM, 24 h. As to the method:
The wound migration assay was performed as previously described. HUVECs were seeded at a plating density of 2 × 10^5 per well in 6-well plates which had been coated with 1% gelatin, cells grown in DMEM medium with 10% FBS overnight. After reaching 100% confluence, the cells were then gently scraped with a plastic tip to produce a wound area. After wounding cells were incubated with fresh DMEM medium with xanthones 1, 3, 7 and 9 at a concentration of 0.5 μM, the migration and cell movement throughout the wound area was examined after 24 h.

In another data set the test system is HCT-116. Briefly: MTT cytotoxicity assay, HCT-116. The settings on record: Homo sapiens, HCT-116; MTT assay; 50% inhibition of cell growth; read-out: IC50 HCT-116. The format is cell-based. As to the method:
as §1

The test system of data set [2] is zebrafish embryos Tg(flk1:EGFP). In words: Antiangiogenic activity assay on blood vessel formation in zebrafish embryos. In kind it is in vivo, zebrafish (Danio rerio). The settings on record: for Antiangiogenic activity to zebrafish embryos: concentrations varying from 1 μM to 16 μM; for Concentration with inhibitory effect on ISV formation (Figure 2): zebrafish embryos, 24 h, effects of 3, 7, 9 comparable to GA. The method, then:
(§2) A transgenic zebrafish line, Tg(flk1:EGFP), with the endothelial- specific flk1 promoter directing enhanced green fluorescent protein (EGFP) expression in all endothelial cells of the vasculature was used. Adult zebrafish were maintained at 28.5 °C in a recirculating aquaculture system. Zebrafish embryos were generated by natural pair-wise mating, collected in the morning and raised at 28.5 °C in embryo water (0.2 g/L of Instant Ocean Salt in distilled water). At 6 h post-fertilization (hpf), the embryos were sorted for viability and developmental stage (shield stage). The embryos were firstly placed in 24-well plates in 1 mL of embryo water with eight embryos per well. Then, the xanthones, at various concentrations, were added to embryo water of each well from the shield stage (about 6 h). Because the fish embryo receives nourishment from an attached yolk ball for the duration of the experiment, no additional maintenance was required during the duration of the experiments. After treatment with the drugs for 24 h, the embryos were anesthetized with 0.05% 2-phenoxyethanol in embryo water. One to three embryos were placed on carry sheet glass and each embryo was examined for the presence of ectopic vessels in the subintestinal vessel plexus (SIV) as an indication of antiangiogenic effect. Photographs were taken under a fluorescence microscope.

In data set [3] the test system is zebrafish embryos. In words: Death rates of treated zebrafish embryos. The settings on record: for Death Rate: eight embryos per well, control 0; for Concentration that caused the death of all zebrafish embryos: highest concentration tested. The format is in vivo, zebrafish (Danio rerio). The method, then:
as §2

Another data set has as its system HeLa. In words: MTT cytotoxicity assay, HeLa. The format is cell-based. The settings on record: Homo sapiens, MTT assay, 50% inhibition of cell growth, read-out: IC50 HeLa. As to the method:
as §1

The subject of another data set is HepG-2. In words: MTT cytotoxicity assay, HepG-2. In kind it is cell-based. The settings on record: Homo sapiens, HepG2; MTT assay; 50% inhibition of cell growth; read-out: IC50 HepG-2. The method, then:
as §1

The structures appear in SMILES notation. Several values for one entry are separate records, joined by “and”; a condition that tells them apart may be missing. Equal values may be shown once.

For orientation: IC50 means the midpoint of a concentration-inhibition curve.

Regarding `CC(C)=CCC/C(C)=C/Cc1c(O)c(CC=C(C)C)c2c(c1O)C(=O)C1=C[C@@H]3C[C@H]4C(C)(C)O[C@@](C/C=C(\C)C(=O)O)(C3=O)[C@@]14O2` [Xanthone 9, isogambogenic acid], the half-inhibitory concentration (IC50) in the data set on HUVEC cell line turned out to be 1730 nM; with A549 it was 12.7 µM; in the data set with HCT-116 it was 11.7 µM; with HeLa it was 6.35 µM; with HepG-2, 6.35 µM. The “Heart Rate” value with zebrafish embryos [1] (2 μM, zebrafish embryos, control 21 per 10 s) was 8 per 10 s; in the data set with zebrafish embryos [1] (4 μM, zebrafish embryos, control 21 per 10 s), 5 per 10 s; in the data set on zebrafish embryos [1] (8 μM, zebrafish embryos, control 21 per 10 s), 0 per 10 s. Also, the “Inhibition of the migration of HUVEC” value with HUVEC is “remarkable inhibition”. Moreover, the “Antiangiogenic activity to zebrafish embryos” value in data set [2] is recorded as “displayed antiangiogenic activity”. For the same compound, in [2], the “Concentration with inhibitory effect on ISV formation (Figure 2)” value came out at 4 µM. Besides, the “Death Rate” value with zebrafish embryos [3] (2 μM) was 0; with zebrafish embryos [3] (4 μM), 0; with zebrafish embryos [3] (8 μM), 8/8. For the same compound, the “Concentration that caused the death of all zebrafish embryos” value in the data set with zebrafish embryos [3] amounted to 8 µM.
Turning to `CC(C)=CCC[C@]1(C)C=Cc2c(O)c3c(c(CC=C(C)C)c2O1)O[C@]12C(=C[C@@H]4C[C@H]1C(C)(C)O[C@@]2(C/C=C(/C)C(=O)O)C4=O)C3=O` [Xanthone 1, gambogic acid], the IC50 in the data set on HUVEC cell line was 720 nM; in the data set on A549, 1.55 µM; in the data set on HCT-116, 0.64 µM; in the data set on HeLa, 1.59 µM; in the data set with HepG-2, 0.78 µM. The “Heart Rate” value with zebrafish embryos [1] (Tg(flk1:EGFP), zebrafish, in vivo, 24 h, 1 μM) amounted to 8 per 10 s; in the data set with zebrafish embryos [1] (Tg(flk1:EGFP), zebrafish, in vivo, 24 h, 2 μM), 3 per 10 s; with zebrafish embryos [1] (Tg(flk1:EGFP), zebrafish, in vivo, 24 h, 4 μM), 0 per 10 s. In addition, in the data set on HUVEC, the “Inhibition of the migration of HUVEC” value is reported as “remarkable inhibition”. The “Antiangiogenic activity to zebrafish embryos” value in data set [2] is recorded as “displayed antiangiogenic activity”. Also, in data set [2], the “Concentration with inhibitory effect on ISV formation (Figure 2)” value is 1 µM and 2 µM. For the same compound, the “Death Rate” value with zebrafish embryos [3] (1 μM) is given as 0; in the data set with zebrafish embryos [3] (2 μM) it was 1/8; in the data set on zebrafish embryos [3] (4 μM) it was 8/8. In the data set on zebrafish embryos [3], the “Concentration that caused the death of all zebrafish embryos” value came out at 4 µM.
